The inhibition is the change of the read-out against control, counted positive when it falls.

The source made the active and inactive calls. No cut-off for these calls is given here.

These results are taken from ChEMBL document CHEMBL4422616, “The P-glycoprotein inhibitor diltiazem-like 8-(4-chlorophenyl)-5-methyl-8-[(2Z)-pent-2-en-1-yloxy]-8H-[1,2,4]oxadiazolo[3,4-c][1,4]thiazin-3-one inhibits esterase activity and H3 histone acetylation” (Eur J Med Chem, 2019).

Data set [1] relates to HepG2. Put plainly: Cytotoxicity against human HepG2 cells assessed as reduction in cell viability up to 100 uM after 48 hrs by MTT assay. The class given is cell-based. As to conditions: hepg2, 48 h. Background: Tetrazolium assays rely on reduction of a dye to a coloured formazan, in cell work by metabolically active cells.
The test system of data set [2] is HEK293. Put plainly: Cytotoxicity against HEK293 cells assessed as reduction in cell viability up to 100 uM after 48 hrs by MTT assay. The class given is cell-based. As to conditions: human, hek293, 48 h.
Data set [3] has as its system HepG2. Put plainly: Cytotoxicity against human HepG2 cells assessed as morphological alteration up to 100 uM after 48 hrs by MTT assay. The class given is cell-based. As to conditions: hepg2, 48 h.
Data set [4] has as its system HEK293. Put plainly: Cytotoxicity against HEK293 cells assessed as morphological alteration up to 100 uM after 48 hrs by MTT assay. As to conditions: human, hek293, 48 h. The class given is cell-based.
Data set [5] deals with HepG2. Put plainly: Cytotoxicity against human HepG2 cells assessed as reduction in cell viability at 500 uM after 24 to 48 hrs by MTT assay relative to control. The class given is cell-based. As to conditions: hepg2, 500 µM.
In data set [6] the test system is HEK293. Put plainly: Cytotoxicity against HEK293 cells assessed as reduction in cell viability at 500 uM after 24 to 48 hrs by MTT assay relative to control. The class given is cell-based. As to conditions: human, hek293, 500 µM.
Data set [7] concerns HEK293. Put plainly: Inhibition of esterase in HEK293 cells at 100 uM after 1 hr by calcein-AM dye-based fluorescence assay relative to control. The class given is cell-based. As to conditions: Homo sapiens.
Data set [8] deals with HepG2. The data set can be described thus: Inhibition of esterase in human hepG2 cells at 100 uM after 1 hr by calcein-AM dye-based fluorescence assay relative to control. The class given is cell-based.
Data set [9] deals with Acetylcholinesterase (Homo sapiens) (UniProt P22303). Put plainly: Inhibition of AChE (unknown origin) assessed as residual activity at 10 uM using acetylthiocholine chloride as substrate measured for 10 mins (reference value: 100 +/- 1.2%).
Chain of Acetylcholinesterase (Homo sapiens) (P22303 whole entry): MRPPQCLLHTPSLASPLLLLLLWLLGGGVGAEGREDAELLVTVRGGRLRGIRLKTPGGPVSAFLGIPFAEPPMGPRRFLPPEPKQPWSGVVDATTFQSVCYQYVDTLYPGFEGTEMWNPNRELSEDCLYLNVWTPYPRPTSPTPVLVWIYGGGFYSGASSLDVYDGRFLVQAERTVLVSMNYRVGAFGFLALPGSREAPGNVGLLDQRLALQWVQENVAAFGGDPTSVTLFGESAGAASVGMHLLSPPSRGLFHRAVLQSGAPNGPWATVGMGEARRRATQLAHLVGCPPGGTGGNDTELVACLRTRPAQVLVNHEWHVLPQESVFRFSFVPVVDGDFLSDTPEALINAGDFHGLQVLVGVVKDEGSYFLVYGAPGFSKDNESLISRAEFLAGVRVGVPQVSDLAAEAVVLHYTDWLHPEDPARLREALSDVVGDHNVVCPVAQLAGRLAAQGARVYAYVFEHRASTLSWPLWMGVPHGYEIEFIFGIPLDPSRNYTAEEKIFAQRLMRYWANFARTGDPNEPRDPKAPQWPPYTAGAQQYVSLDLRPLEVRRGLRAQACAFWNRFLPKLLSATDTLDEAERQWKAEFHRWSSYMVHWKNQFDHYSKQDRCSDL
Data set [10] has the same target. The data set can be described thus: Inhibition of AChE (unknown origin) assessed as residual activity at 50 uM using acetylthiocholine chloride as substrate measured for 10 mins (reference value: 100 +/- 1.2%).
For data set [11] the target is unchanged. Put plainly: Inhibition of AChE (unknown origin) assessed as residual activity at 100 uM using acetylthiocholine chloride as substrate measured for 10 mins (reference value: 100 +/- 1.2%).
Data set [12] shares this target. Put plainly: Inhibition of AChE (unknown origin) using acetylthiocholine chloride as substrate measured for 10 mins.
The subject of data set [13] is HepG2. The data set can be described thus: Inhibition of HAT in human HepG2 cells assessed as decrease in histone H3 acetylation at Lys27 residues at 100 uM incubated for 48 hrs by Western blot analysis relative to control. The class given is cell-based. Background: Immunoblotting shows a protein as a band on a membrane.
In data set [14] the test system is HEK293. Put plainly: Inhibition of HAT in HEK293 cells assessed as decrease in histone H3 acetylation at Lys27 residues at 100 uM incubated for 48 hrs by Western blot analysis relative to control. As to conditions: Homo sapiens. The class given is cell-based.
Data set [15] deals with HepG2. Put plainly: Inhibition of HAT in human HepG2 cells assessed as decrease in histone H3 acetylation at Lys27 residues at 100 uM incubated for 48 hrs in presence of TSA by Western blot analysis. The class given is cell-based.
Data set [16] concerns HEK293. Put plainly: Inhibition of HAT in HEK293 cells assessed as decrease in histone H3 acetylation at Lys27 residues at 100 uM incubated for 48 hrs in presence of TSA by Western blot analysis. The class given is cell-based. As to conditions: Homo sapiens.
Data set [17] has as its target ATP-binding cassette sub-family C member 6 (Homo sapiens, UniProt O95255). Put plainly: Inhibition of ABCC6 (unknown origin) expressed in HEK293 cells assessed as increase in doxorubicin efflux at 100 uM after 30 mins by fluorescence assay. As to conditions: hek293, 0.5 h. The class given is cell-based.

Chain of ATP-binding cassette sub-family C member 6 (O95255 whole entry): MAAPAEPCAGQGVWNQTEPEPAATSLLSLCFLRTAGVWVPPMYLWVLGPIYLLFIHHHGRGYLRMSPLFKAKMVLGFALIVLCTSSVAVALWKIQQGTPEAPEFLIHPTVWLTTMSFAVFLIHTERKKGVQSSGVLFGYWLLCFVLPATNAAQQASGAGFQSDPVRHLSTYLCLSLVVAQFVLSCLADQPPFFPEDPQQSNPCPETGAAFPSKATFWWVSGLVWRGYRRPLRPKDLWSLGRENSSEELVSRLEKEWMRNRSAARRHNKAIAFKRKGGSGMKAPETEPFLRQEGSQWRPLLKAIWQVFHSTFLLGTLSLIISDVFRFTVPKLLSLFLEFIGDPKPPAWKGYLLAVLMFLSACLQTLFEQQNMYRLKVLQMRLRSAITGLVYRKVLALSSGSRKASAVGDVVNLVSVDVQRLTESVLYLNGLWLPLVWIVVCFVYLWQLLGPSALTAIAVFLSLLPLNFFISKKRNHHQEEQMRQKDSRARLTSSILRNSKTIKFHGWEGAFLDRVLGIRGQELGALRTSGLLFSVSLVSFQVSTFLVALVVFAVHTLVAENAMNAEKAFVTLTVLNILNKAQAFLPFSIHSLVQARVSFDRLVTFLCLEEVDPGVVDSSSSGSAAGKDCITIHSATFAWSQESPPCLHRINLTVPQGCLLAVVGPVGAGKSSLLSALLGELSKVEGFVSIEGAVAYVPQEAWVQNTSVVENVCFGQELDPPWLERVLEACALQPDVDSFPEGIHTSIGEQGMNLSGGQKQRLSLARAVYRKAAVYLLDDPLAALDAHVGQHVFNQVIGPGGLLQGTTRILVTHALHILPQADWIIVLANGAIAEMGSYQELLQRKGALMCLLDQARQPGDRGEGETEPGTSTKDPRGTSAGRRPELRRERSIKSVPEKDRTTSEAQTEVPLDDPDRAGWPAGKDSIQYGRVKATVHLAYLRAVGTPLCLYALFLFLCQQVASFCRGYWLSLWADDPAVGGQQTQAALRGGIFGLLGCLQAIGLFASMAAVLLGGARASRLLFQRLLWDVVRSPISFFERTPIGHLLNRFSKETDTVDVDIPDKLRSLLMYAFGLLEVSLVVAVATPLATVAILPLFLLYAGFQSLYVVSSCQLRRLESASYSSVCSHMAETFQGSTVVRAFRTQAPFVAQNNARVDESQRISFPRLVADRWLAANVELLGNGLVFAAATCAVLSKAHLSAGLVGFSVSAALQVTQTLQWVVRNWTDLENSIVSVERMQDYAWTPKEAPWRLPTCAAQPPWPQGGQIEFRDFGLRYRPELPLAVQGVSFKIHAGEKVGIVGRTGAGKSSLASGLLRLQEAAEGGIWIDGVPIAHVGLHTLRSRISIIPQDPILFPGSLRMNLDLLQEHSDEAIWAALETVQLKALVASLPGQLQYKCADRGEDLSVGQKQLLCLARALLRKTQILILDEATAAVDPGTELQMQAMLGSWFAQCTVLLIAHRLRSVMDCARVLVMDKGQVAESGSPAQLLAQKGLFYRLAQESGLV

Take `CC/C=C\COC1(c2ccc(Cl)cc2)SC=C(C)n2c1noc2=O` (configuration not stated): the Activity entry was “Non-Toxic” in the data set on HepG2 [1]; “Non-Toxic” with HEK293 [2]; “Non-Toxic” with HepG2 [3]; “Non-Toxic” in the data set on HEK293 [4]; 50% in the data set with HepG2 [5]; 50% in the data set with HEK293 [6]. Besides, the Activity stood at 80% in [9], 61% in data set [10] and 56% in data set [11]. Also, the inhibition was 60% with HEK293 [7]; 50% with HepG2 [8]; “Dose-dependent effect” in data set [12]; 56% with HepG2 [13]; 80% with HEK293 [14]. The inhibition entry in the data set with HepG2 [15] and in the data set with HEK293 [16] was “Active” throughout. In data set [17], the “inhibition (INH)” value is on record as “Active”.
